The test system of one experiment is hsp90. The experiment can be described thus: Affinity chromatography on EGCG-conjugated Sepharose, hsp90 inherent to RRL. It is filed as binding, rabbit. The settings on record: immunoblotting. As for the experimental part:
EGCG was conjugated to cyanogen bromide (CNBr)-activated Sepharose (Sigma). EGCG (2.5 mg) was dissolved in 5004 coupling buffer (0.1M NaHCO3, 0.5M NaCl, pH 6.0). CNBr-activated Sepharose was swelled and washed in 1 mM HCl on a sintered glass filter followed by a wash with coupling buffer. CNBr-activated Sepharose beads were added to the EGCG in coupling buffer at a final concentration of 5 mg EGCG/ml of wet gel. The coupling solution containing EGCG and Sepharose was mixed end-over end at 4° C. overnight. Remaining active groups were blocked for 2 h at room temperature in Tris-HCl (0.1M, pH 8). EGCG-conjugated Sepharose was washed with three cycles of alternating pH wash buffers (Buffer 1: 0.1M acetate, 0.5M NaCl, pH4.0; Buffer 2: 0.1M Tris-HCl, 0.5M NaCl, pH 8.0). […]
Approximately 25 μL of 1:4 diluted RRL containing ^35S-labeled in vitro transcribed protein was incubated with 40 μL of either unconjugated or EGCG-conjugated Sepharose beads in binding buffer (50% slurry). […] Protein was transferred to PVDF membrane (Millipore, Bedford, Mass.). ^35S-labeled AhR, ARNT, p23, XAP2, and hsp90 truncated and point mutants were detected by Phosphoimaging. Hsp90 inherent to RRL was detected by immunoblotting using an anti-hsp90 monoclonal antibody (Stressgen Victoria, BC Canada) followed by secondary antibody coupled to horseradish peroxidase (Jackson Immuno Research, West Grove, Pa.). […]
A general note: In western blotting, separated proteins are transferred to a membrane and probed.

For the next experiment, the target named is T1, purified human hsp90 (Homo sapiens, UniProt P07900).
T1 construct: purchased Stressgen
The experiment can be described thus: Affinity chromatography on EGCG-conjugated Sepharose, purified hsp90. It counts as binding. To be noted: purified hsp90 alone. The procedure:
EGCG was conjugated to cyanogen bromide (CNBr)-activated Sepharose (Sigma). EGCG (2.5 mg) was dissolved in 5004 coupling buffer (0.1M NaHCO3, 0.5M NaCl, pH 6.0). CNBr-activated Sepharose was swelled and washed in 1 mM HCl on a sintered glass filter followed by a wash with coupling buffer. CNBr-activated Sepharose beads were added to the EGCG in coupling buffer at a final concentration of 5 mg EGCG/ml of wet gel. The coupling solution containing EGCG and Sepharose was mixed end-over end at 4° C. overnight. Remaining active groups were blocked for 2 h at room temperature in Tris-HCl (0.1M, pH 8). EGCG-conjugated Sepharose was washed with three cycles of alternating pH wash buffers (Buffer 1: 0.1M acetate, 0.5M NaCl, pH4.0; Buffer 2: 0.1M Tris-HCl, 0.5M NaCl, pH 8.0). EGCG-conjugated beads were then equilibrated in binding buffer (0.05M Tris-HCl, 0.15M sodium chloride, pH 7.5). The control unconjugated CNBr-activated Sepharose beads were prepared as above in the absence of EGCG.
For affinity chromatography using histidine-purified XAP2 and purified human hsp90 (Stressgen), 30 μl of unconjugated or EGCG-conjugated Sepharose were incubated for 1 h at room temperature with either 1:4 diluted ^35S-XAP2 in RRL, 30 μl of histidine purified ^35S-XAP2, 0.6 μg of purified hsp90, or 20 μl of histidine purified ^35S-XAP2 in the presence of 0.6 μg of purified hsp90. […]

The target in the next experiment is T2, AhR (Mus musculus, UniProt P30561).
T2 construct: made in house; host or cells: TNT rabbit reticulocyte lysate
T2 sequence (P30561 10-805 limits assumed): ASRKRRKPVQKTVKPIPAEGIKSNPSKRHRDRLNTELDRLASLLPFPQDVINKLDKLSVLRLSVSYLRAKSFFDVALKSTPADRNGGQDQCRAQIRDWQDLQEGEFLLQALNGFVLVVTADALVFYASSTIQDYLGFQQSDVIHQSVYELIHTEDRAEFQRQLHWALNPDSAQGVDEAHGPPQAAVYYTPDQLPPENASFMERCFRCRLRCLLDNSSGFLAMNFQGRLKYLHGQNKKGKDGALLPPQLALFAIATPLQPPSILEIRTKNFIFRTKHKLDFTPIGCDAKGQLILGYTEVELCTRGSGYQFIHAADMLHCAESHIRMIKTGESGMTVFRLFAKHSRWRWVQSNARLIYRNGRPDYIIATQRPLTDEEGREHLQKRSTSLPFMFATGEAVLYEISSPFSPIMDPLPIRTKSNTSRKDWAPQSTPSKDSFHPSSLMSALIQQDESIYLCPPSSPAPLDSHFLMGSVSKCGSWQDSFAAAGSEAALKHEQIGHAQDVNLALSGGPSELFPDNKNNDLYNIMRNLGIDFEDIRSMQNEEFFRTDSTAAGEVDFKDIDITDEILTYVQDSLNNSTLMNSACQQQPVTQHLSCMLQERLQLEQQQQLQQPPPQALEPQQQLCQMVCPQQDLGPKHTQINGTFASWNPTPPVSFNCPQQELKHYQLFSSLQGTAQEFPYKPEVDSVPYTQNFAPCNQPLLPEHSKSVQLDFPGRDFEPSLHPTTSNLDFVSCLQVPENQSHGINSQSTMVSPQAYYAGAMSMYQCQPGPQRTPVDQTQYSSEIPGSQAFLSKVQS
As to the kind of experiment: DNA binding of in vitro translated AhR and ARNT in RRL. It counts as biochemical. From the text:
The data provided above implicate a model where EGCG inhibits release of hsp90 from the AhR complex. This form of hsp90 appears to maintain its interaction with XAP2 (FIG. 4). However, from the above data, it remains to be determined whether 1) the hsp90-XAP2 complex remains bound to the AhR upon EGCG treatment, 2) EGCG prevents ARNT dimerization, 3) EGCG stabilizes the receptor in a different complex upon additional treatment with TCDD, and 4) if other proteins are present in this complex. Findings from the above investigations add some useful insight into the mechanism of action of EGCG. The mouse AhR used for these studies was in vitro transcribed in rabbit reticulocyte lysate (RRL) and immunoprecipitated using an antibody specific for amino acids 12-31. Although this antibody could precipitate the latent and TCDD-activated AhR complex from RRL, it was incapable of precipitating an EGCG-treated AhR. […] Furthermore, titration of Hepa cytosol into the RRL system restored the ability to immunoprecipitate ^35S-methionine-labeled in vitro transcribed AhR. Similar discrepancies between systems were observed utilizing DNA binding as an endpoint. […] This is in direct contrast to the lack of AhR transformation by EGCG observed in Hepa cytosol (FIG. 7). […] This EGCG-induced DNA binding complex could also be attenuated upon titration of Hepa cytosol into RRL. […]

With `O=C(O[C@@H]1Cc2c(O)cc(O)cc2O[C@@H]1c1cc(O)c(O)c(O)c1)c1cc(O)c(O)c(O)c1` [EGCG, epigallocatechin gallate], the “binding of hsp90 to EGCG-Sepharose” value in the experiment on hsp90 is “eluted from EGCG-Sepharose”. In addition, the “binding of purified hsp90 to EGCG-Sepharose” value on purified human hsp90 is “eluted specifically from EGCG-Sepharose”. Besides, the “DNA binding of AhR and ARNT, treatment alone” value on AhR is given as “formation of a strong DRE-AhR-ARNT shifted complex”.
